≈ marks a conversion by molar mass, not a printed value. Where “and” joins values, the source holds several entries; their conditions need not be identical. Equal entries are not always repeated. Entries after “also recorded” stand apart in the source; their conditions may differ. Where two headings read alike, the source gives them in different places.
What was measured:
[1] = Aqueous solubility estimation (OECD test #105) in 1 M supporting electrolytes; details: for solubility compared with AQDS(2,7) and AQS(2): sulfonated AQs
Procedure: After each addition the test tube was ultrasonicated and/or shaken vigorously using a Vortex Generator for at least 10 minutes at room temperature. Then the tube was inspected visually for undissolved sample and the addition of supporting electrolyte solution continued until the sample seemed just dissolved. The volumes just before and after full dissolution are used for calculating the solubility interval (Supplementary, S4 and S5) and the solubility is estimated as the average between the two.

[2] = Visual inspection of dissolved samples on standing (thixotropy, phase separation); assay type: physicochemical
Procedure: Dissolved samples were left to stand for 12 hours and visually inspected for thixotropy using a vortex generator. For very insoluble compounds the amount of sample was decreased to 0.01 g and the dissolution time increased up to 24 h.
In practical RFBs thixotropy is not wanted, as the redox solutions can be kept still for long times. […] Thixotropy of AQ dyes in aqueous dispersions has been described earlier, as well as some methods to overcome the problem such as addition of polyvinylpyrrolidone to the solution[43].

[3] = Cyclic voltammetry: formal redox potential, peak current ratio, electrochemical reversibility; assay type: physicochemical
Procedure: The investigated compounds were used as-purchased and without any purification. […] For each series of CVs, a freshly polished electrode was used. The CVs for soluble compounds in 1 mM concentration were recorded in a glass beaker with a customized lid in nitrogen purged solutions of three different pHs, namely pH 0 (1 M H2SO4), pH 7 (0.5 M phosphate buffer) and pH 13 (1 M NaOH). The pH of the NaOH solution is taken as 13 to account for carbonization of the solution with exposure to air. A background CV was recorded before each CV experiment to exclude background contaminations. The CVs of insoluble compounds in 1 M H2SO4, or 0.5 M phosphate buffer were recorded as follows: 6 mL of the supporting electrolyte was mixed with approximately 4 mL of acetone, and then a small amount of the quinone was added so that its concentration was around 1 mM.
Each CV was analyzed in terms of peak potentials and peak currents. Peak currents were determined by subtracting a polynomial fit of the background from the recorded current as exemplified in Supplementary, S1. A plot of the absolute values of the peak currents to the square root of the scan rate was constructed and, when reasonable, a linear fit included to evaluate the electrochemical (Nernstian) reversibility of the electrochemical reaction. The peak current Ip for reversible reactions are given by equation (1).
Where F is the Faraday constant, R the gas constant, T the temperature, n the number of electron transferred, A the area of the electrode, DOthe diffusion coefficient and CO^*the bulk concentration of the analyte and v the scan rate. The peak current ratio is expected to be close to one for reversible species. The formal redox potential (E^0’), which is the adjusted form of the standard redox potential, where effects of the medium is taken into account, is reported here as the midpoint potential between the two peak potentials in the CV[24]. All half-cell potentials in this work refer to the normal hydrogen electrode (VNHE).

[4] = pKa of the central (hydro)quinone groups estimated from the Pourbaix diagram; assay type: physicochemical; details: aqueous media, estimated from slope change in Pourbaix diagram, Fig. 5
Procedure: Quinones generally undergo a reversible two-electron reduction/oxidation. The redox potential is strongly pH dependent, as the reaction may or may not involve two protons as illustrated in the scheme-of-squares mechanistic pathway in Fig. 3 [26]. At pH < pKa1, the reaction includes two protons and thus E^0’ decreases with 59 mV per pH unit (at 25 °C)[24]. At pKa1 < pH < pKa2 and pKa2 < pH only one and no protons are involved, whereby E^0’ decreases with 30 and 0 mV per pH unit, respectively. Generally, the reactions that include protons are slower and result in a lower electrochemical rate constant (k0) and may ultimately lead to higher charge-transfer resistance in the RFB. Thus, the choice of pH in the RFB environment strongly influences quinone electrochemical performance.
Similarly to sulfonated AQs, the positions of the hydroxyl groups affect E^0’, but in acidic only to a small extent. […] The three former all have the hydroxyl groups on positions close to the quinone groups. The difference in E^0’ for these hydroxylated AQs and others may be found in the pKa values of the central (hydro)quinone groups. Those are not trivial to measure given the insolubility at lower pH values for hydroxylated AQs, but they can be estimated from the Pourbaix diagram in Fig. 5 [24][26]. For instance, in the Pourbaix diagram of AQDS(2,7), E^0’ follows the expected −59 mv/pH unit from pH 0 to pH 7 (pKa1). Then the first (hydro)quinone group deprotonates, and the slope changes to 30 mV/pH unit until pH 10 (pKa2) and E^0’ becomes pH-independent. […] Thus, if one can predict or measure reasonable values for these pKa values, it should be possible to predict which ones will have a more negative or positive E^0’ at higher pH.

[5] = cited from earlier work; for chemical stability (in water): ref 29 (tetracyano benzoquinone), 30 (dicyano dichloro benzoquinone), 31 (tetracarboxyl para benzoquinone), 32 (duroquinone)
[6] = 1 M H2SO4 supporting electrolyte prepared from MilliQ water, aqueous buffer, thermodynamic from solid, Solubility, 1 M H2SO4, room temperature, interval just after / before full dissolution
[7] = 1 M KCl supporting electrolyte prepared from MilliQ water, saline or isotonic, thermodynamic from solid, Solubility, 1 M KCl, room temperature
[8] = pH 0 (1 M H2SO4), midpoint of CV peak potentials, about 1 mM, acetone added for insoluble compounds
[9] = pH 7 (0.5 M phosphate buffer), midpoint of CV peak potentials
[10] = pH 13 (1 M NaOH), midpoint of CV peak potentials
[11] = 1 M KOH supporting electrolyte prepared from MilliQ water, aqueous buffer, thermodynamic from solid, Solubility, 1 M KOH, room temperature

Row | Compound | solubility [1, 6] [mM] | solubility [1, 7] [mM] | Comment: behaviour of the solution upon standing ([2]; in KOH (1 M)) | Peak current ratio ([3]; pH 0) | formal redox potential E0' [3, 8] | Peak current ratio ([3]; pH 7) | Electrochemical reversibility ([3]; pH 13) | Peak current ratio ([3]; pH 13) | further results
1 | O=C1c2ccccc2C(=O)c2c1ccc(O)c2O [AQDH(1,2), 1,2-dihydroxy-9,10-anthraquinone] | < 10 | < 10 | T hixotropic; also recorded: thixotropy was observed | 0.73(7) | 0.005(4) VNHE | 0.5(1) | Quasireversible | 1.2(1) | –
2 | O=C1c2ccccc2C(=O)c2c(O)ccc(O)c21 [AQDH(1,4), 1,4-dihydroxy-9,10-anthraquinone] | < 10 | < 10 | T hixotropic; also recorded: thixotropy was observed | 0.6(1) | – | 0.4(2) | Reversible | 1.05(3) | –
3 | O=C1c2cccc(O)c2C(=O)c2c(O)cccc21 [AQDH(1,8), 1,8-dihydroxy-9,10-anthraquinone] | – | – | – | – | – | – | Reversible | – | pKa ([4]; read-out: pKa1 of the (hydro)quinone groups): ~4; pKa ([4]; read-out: pKa2 of the (hydro)quinone groups): > 13
4 | O=C1c2cccc(O)c2C(=O)c2c(O)cc(CO)cc21 [AQDH(1,8)MH, 1,8-dihydroxy-3-(hydroxymethyl)-9,10-anthraquinone] | < 10 | < 10 | thixotropy was observed | 0.58(4) | – | 0.51(4) | Reversible | 1.03(1) | Comment: behaviour of the solution upon standing ([2]; in KOH (1 M), listed as AQDG(1,8)MH): T hixotropic behavior
5 | O=C(O)c1cc(O)c2c(c1)C(=O)c1cccc(O)c1C2=O [AQDH(4,5)CA, 4,5-dihydroxy-9,10-anthraquinone-2-carboxylic acid] | < 10 | < 10 | thixotropy was observed | 0.39(6) | 0.041(9) VNHE | 0.69(8) | Reversible | 1.23(7) | Comment: behaviour of the solution upon standing ([2]; in KOH (1 M), listed as AQDH(4,5)C A): T hixotr opic behavior; Electrochemical reversibility ([3]; pH 7): Quasireversible; formal redox potential E0' [3, 9]: -0.267(1) VNHE; formal redox potential E0' [3, 10]: around −0.53 VNHE; formal redox potential E0' ([3]; pH 13 (1 M NaOH), midpoint of CV peak potentials, listed as AQDH(4,5)C A): -0.546(2) VNHE
6 | O=C1c2cccc(S(=O)(=O)[O-])c2C(=O)c2cccc(S(=O)(=O)[O-])c21.[Na+].[Na+] [AQDS(1,5), 9,10-anthraquinone-1,5-disulfonate disodium] | – | – | – | 1.7(1) | −0.03 VNHE | 0.49(3) | Reversible | 1.17(4) | solubility [1, 11]: < 10 mM; solubility compared with AQDS(2,7) and AQS(2) [1]: more than ten times lower solubility; Comment: behaviour of the solution upon standing ([2]; electrolyte not stated): Phase separation; Electrochemical reversibility ([3]; pH 0): Quasireversible; Electrochemical reversibility ([3]; pH 7): Quasireversible
7 | O=C1c2cccc(S(=O)(=O)[O-])c2C(=O)c2c1cccc2S(=O)(=O)[O-].[K+].[K+] [AQDS(1,8), 9,10-anthraquinone-1,8-disulfonate dipotassium] | – | – | – | 1.04(7) | 0.03 VNHE | 0.4(1) | Reversible | 1.0(3) | solubility compared with AQDS(2,7) and AQS(2) [1]: more than ten times lower solubility; Comment: behaviour of the solution upon standing ([2]; electrolyte not stated): Phase separation; Electrochemical reversibility ([3]; pH 0): Quasireversible; formal redox potential E0' ([3]; pH 0 (1 M H2SO4); midpoint of CV peak potentials; about 1 mM; acetone added for insoluble compounds; 8)): 0.027(4) VNHE; Electrochemical reversibility ([3]; pH 7): Quasireversible; formal redox potential E0' [3, 10]: -0.464(4) VNHE
8 | O=C1c2ccc(S(=O)(=O)O)cc2C(=O)c2ccc(S(=O)(=O)O)cc21 [AQDS(2,6), AQ-2,6-disulfonate] | – | – | – | – | – | – | – | – | E0' ([5]; pH 0): ~0.166 VNHE
9 | O=C1c2ccccc2C(=O)c2cc(S(=O)(=O)O)ccc21 [AQS(2), 9,10-anthraquinone-2-sulfonate sodium] | – | – | – | 1.0(1) | 0.163(3) VNHE and 0.163 VNHE | 0.88(1) | – | 1.2(2) | Comment: behaviour of the solution upon standing ([2]; electrolyte not stated): Phase separation; formal redox potential E0' [3, 10]: -0.334(3) VNHE; Electrochemical reversibility ([3]; pH not specified): Reversible
10 | O=C1c2ccccc2C(=O)c2c1cc(S(=O)(=O)O)c(O)c2O [AQS(2)DH, 3,4-dihydroxy-9,10-anthraquinone-2-sulfonate sodium] | – | < 10 | T hixotropic behavior; also recorded: thixotropy was observed | 0.9(1) | – | 0.85(6) | – | 1.1(1) | solubility ([1]; 1 M H2SO4, room temperature, interval just after / before full dissolution): barely soluble; Electrochemical reversibility ([3]; pH not specified): Quasie versib le
11 | O=C(O)c1cnccn1 [Pyrazine-2-carboxylic acid] | 70 (≈ 8690 µg/mL) | 80 (≈ 9930 µg/mL) | – | – | -0.013(3) VNHE | – | – | – | solubility [1, 11]: 900 mM (≈ 112000 µg/mL); formal redox potential E0' [3, 9]: Unstable; formal redox potential E0' [3, 10]: Unstable
12 | N#CC1=C(C#N)C(=O)C(Cl)=C(Cl)C1=O [dicyano dichloro benzoquinone] | – | – | – | – | – | – | – | – | E0' [5]: 0.9 VNHE; chemical stability (in water) [5]: readily reacts with water
13 | CC1=C(C)C(=O)C(C)=C(C)C1=O [duroquinone] | – | – | – | – | – | – | – | – | potential ([5]; aqueous (acidic and neutral) solutions): 0.5 VNHE; chemical stability (in water) [5]: electrochemically reversible and chemically stable
14 | O=C(O)C1=C(C(=O)O)C(=O)C(C(=O)O)=C(C(=O)O)C1=O [tetracarboxyl para benzoquinone] | – | – | – | – | – | – | – | – | calculated standard potential [5]: > 1 VNHE; chemical stability (in water) [5]: decomposes after synthesis
15 | N#CC1=C(C#N)C(=O)C(C#N)=C(C#N)C1=O [tetracyano benzoquinone] | – | – | – | – | – | – | – | – | E0' estimated higher than that of dicyano dichloro benzoquinone [5]: 0.3 V; chemical stability (in water) [5]: Chemical instability in water
16 | hexahydroxy anthraquinone | – | – | – | – | – | – | – | – | experimentally obtained E0' ([5]; pH 13): about −0.7 VNHE

Source: article PMC5155426, “Organic Redox Species in Aqueous Flow Batteries: Redox Potentials, Chemical Stability and Solubility” (Scientific Reports, 2016)
